Measurements reported in patent US20190175560A1, “MEBENDAZOLE CANCER THERAPIES AND METHODS OF USE” (Shepherd Therapeutics, Inc., priority 2017, published 2019).

Columns and labels:
Type in all cases: cell-based
[1] = test system: rare cancer tumor cell lines including neuroblastoma, rhabdomyosarcoma and Ewing sarcoma; experiment: MBZ cell viability IC50 across rare cancer tumor cell lines; details: several rare cancer tumor cell lines; 72 hours; read-out: IC50s (range over cell lines)
Protocol: The effect of mebendazole administration on cell lines derived from exemplary cancers was tested. One approach to determining the effectiveness of mebendazole in the treatment of cancer comprises in vitro testing. In this approach, cancer cell lines representative of the cancers of the disclosure are cultured in vitro according to standard techniques (see, for example, Human Cell Culture Protocols, Third Edition, […] R. D. Hughes, Editors, Humana Press, 2012), and increasing concentrations of mebendazole are administered to determine the IC50 value. As used herein, the term “IC50 value” refers to the concentration of a compound (for example mebendazole) wherein the response to that compound (such as inhibited cellular viability) is reduced by half. The IC50 is thus a measure of the effectiveness of a compound in inhibiting a biological process. […] Based on this biology, several rare cancer tumor cell lines including neuroblastoma, rhabdomyosarcoma and Ewing sarcoma were analyzed for sensitivity to MBZ treatment in vitro. […] In all cases, including those described below, the viable cells were determined using the CellTiter Glo® kit and an IC50 curve was generated using the PRISM software.

A2780cis cells = experiment: MBZ cell viability IC50 (CellTiter Glo); details: 72 hours
Protocol: The effect of mebendazole administration on cell lines derived from exemplary cancers was tested. One approach to determining the effectiveness of mebendazole in the treatment of cancer comprises in vitro testing. In this approach, cancer cell lines representative of the cancers of the disclosure are cultured in vitro according to standard techniques (see, for example, Human Cell Culture Protocols, Third Edition, […] R. D. Hughes, Editors, Humana Press, 2012), and increasing concentrations of mebendazole are administered to determine the IC50 value. As used herein, the term “IC50 value” refers to the concentration of a compound (for example mebendazole) wherein the response to that compound (such as inhibited cellular viability) is reduced by half. The IC50 is thus a measure of the effectiveness of a compound in inhibiting a biological process. […] Based on this biology, several rare cancer tumor cell lines including neuroblastoma, rhabdomyosarcoma and Ewing sarcoma were analyzed for sensitivity to MBZ treatment in vitro. […] In all cases, including those described below, the viable cells were determined using the CellTiter Glo® kit and an IC50 curve was generated using the PRISM software. […] FIGS. 1 and 2 show the effect of mebendazole on 3 ovarian cancer derived cell lines, A2780cis, SKOV-3 and TOV-112D at 24 hours, 48 hours and 72 hours. […] Percent cell viability is shown on the Y-axis, from 0 to 150 in units of 25. A2780cis cell data are represented by filled circles and a dotted line. SKOV-3 cell data are represented by squares and a solid line. TOV-112D cell data are represented by triangles and a dashed line. […] In FIG. 2, on the X-axis, the log concentration of mebendazole in μM, indicated from -4 to 4 in units of 2. In FIG. 2, on the Y-axis, percent viability is shown, from 0 to 125 in units of 25.

[2] = test system: SNU16 gastric carcinoma cells; experiment: Synergy of MBZ or HA-PLGA-MBZ with chemotherapeutic agents (Chou-Talalay CI, Cell Titer Glo); details: SNU16 + 5-FU
Protocol: (§3) For in vitro experiments, cells were plated in triplicate and treated with a range of concentrations of MBZ and relevant chemotherapeutic agents in a complete Latin square.
(§4) Cells were plated in triplicate and treated with a range of 5 concentrations of MBZ in combination with 5 concentrations of chemotherapeutic agents in a complete Latin square. Following a 72 hour incubation, cell viability was determined using Cell Titer Glo.
(§5) In table 22 below, cells were plated in triplicate and treated with a range of 5 concentrations of MBZ or HA-PLGA-MBZ nanoparticles containing a molar equivalent of MBZ, and 5 concentrations of relevant chemotherapeutic agents in a complete Latin square. Combination indexes (CI) were determined based on the method described by Chou-Talalay with a CI value less than 0.9 indicating synergy. […] Numbers in parentheses represent the range of synergistic CI values for each cell line and drug combination.

[3] = test system: multiple rare cancer tumor cell lines; experiment: MBZ alone, cell viability IC50 in rare cancer tumor cell lines (Example 3); details: read-out: IC50s (range over cell lines)
Protocol: The FDA-approved anti-helminthic drug mebendazole (MBZ) has been reported to affect several biological pathways involved in tumor growth and metastasis. Based on this activity, multiple rare cancer tumor cell lines including, but not limited to, neuroblastoma, carcinoid tumors, esophageal adenocarcinoma, gastrointestinal stromal tumors, leiomyosarcoma, pheochromocytoma, and mesothelioma were analyzed for their susceptibility to MBZ treatment alone or in combination with standard chemotherapeutic agents in vitro.

[4] = test system: CHP-212 neuroblastoma cell line; experiment: MBZ cell viability IC50 (CellTiter Glo); details: Homo sapiens, 72 hours
Protocol: (§1) The effect of mebendazole administration on cell lines derived from exemplary cancers was tested. One approach to determining the effectiveness of mebendazole in the treatment of cancer comprises in vitro testing. In this approach, cancer cell lines representative of the cancers of the disclosure are cultured in vitro according to standard techniques (see, for example, Human Cell Culture Protocols, Third Edition, […] R. D. Hughes, Editors, Humana Press, 2012), and increasing concentrations of mebendazole are administered to determine the IC50 value. As used herein, the term “IC50 value” refers to the concentration of a compound (for example mebendazole) wherein the response to that compound (such as inhibited cellular viability) is reduced by half. The IC50 is thus a measure of the effectiveness of a compound in inhibiting a biological process. […] Based on this biology, several rare cancer tumor cell lines including neuroblastoma, rhabdomyosarcoma and Ewing sarcoma were analyzed for sensitivity to MBZ treatment in vitro. […] In all cases, including those described below, the viable cells were determined using the CellTiter Glo® kit and an IC50 curve was generated using the PRISM software. […] The neuroblastoma cell lines IMR-32, CHP-212, and SK-N-AS were treated with ten serial dilutions of mebendazole for 72 hours.

[5] = test system: SK-N-AS neuroblastoma cell line; experiment: MBZ cell viability IC50 (CellTiter Glo); details: Homo sapiens, 72 hours
Protocol: as §1

[6] = test system: IMR-32 neuroblastoma cell line; experiment: MBZ cell viability IC50 (CellTiter Glo); details: Homo sapiens, 72 hours
Protocol: as §1

U-CH2 chordoma cell line = experiment: MBZ cell viability dose response (CellTiter Glo); details: 72 hours, up to the highest concentration, 50 μM
Protocol: (§2) The effect of mebendazole administration on cell lines derived from exemplary cancers was tested. One approach to determining the effectiveness of mebendazole in the treatment of cancer comprises in vitro testing. In this approach, cancer cell lines representative of the cancers of the disclosure are cultured in vitro according to standard techniques (see, for example, Human Cell Culture Protocols, Third Edition, […] R. D. Hughes, Editors, Humana Press, 2012), and increasing concentrations of mebendazole are administered to determine the IC50 value. As used herein, the term “IC50 value” refers to the concentration of a compound (for example mebendazole) wherein the response to that compound (such as inhibited cellular viability) is reduced by half. The IC50 is thus a measure of the effectiveness of a compound in inhibiting a biological process. […] Based on this biology, several rare cancer tumor cell lines including neuroblastoma, rhabdomyosarcoma and Ewing sarcoma were analyzed for sensitivity to MBZ treatment in vitro. […] In all cases, including those described below, the viable cells were determined using the CellTiter Glo® kit and an IC50 curve was generated using the PRISM software. […] A dose response curve was generated using the PRISM software, with the intent of determining an IC50 for the cell lines following treatment of MBZ.

[7] = test system: MUG-Chor1 chordoma cell line; experiment: MBZ cell viability dose response (CellTiter Glo); details: 72 hours, up to the highest concentration, 50 μM
Protocol: as §2

[8] = test system: PC12 pheochromocytoma/paraganglioma cell line; experiment: Synergy of MBZ or HA-PLGA-MBZ with chemotherapeutic agents (Chou-Talalay CI, Cell Titer Glo); details: PC12 + Vincristine
Protocol: as §3, §4, §5

[9] = test system: CHP-212 neuroblastoma cells; experiment: as above; details: CHP-212 + 4-HC
Protocol: as §3, §4, §5

COC(=O)Nc1nc2ccc(C(=O)c3ccccc3)cc2[nH]1 [MBZ, methyl N-(6-benzoyl-1H-benzimidazol-2-yl)carbamate]
IC50 [1]: 50 to 1000 nM | IC50 (A2780cis cells): 250 nM | range of synergistic CI values [2]: 0.223-0.837 | IC50 [3]: 90 to 2200 nM | IC50 [4]: 130 nM | IC50 [5]: 680 nM | IC50 [6]: 50 nM | sensitivity to MBZ treatment (dose response) (U-CH2 chordoma cell line): largely resistant | sensitivity to MBZ treatment (dose response) [7]: largely resistant | range of synergistic CI values [8]: Yes- (0.274-0.870) | range of synergistic CI values [9]: 0.569-0.860
